Measurements: paper PMC8947439, “Antimicrobial Properties of a Peptide Derived from the Male Fertility Factor kl2 Protein of Drosophila melanogaster” (Current Issues in Molecular Biology, 2022)
Residues, ends and D or L forms follow the SMILES beside them.

Experiments:
E. coli HB101 [1] = type: cell-based, Escherichia coli; settings: HB101, 2 h
Experimental: (§1) Bacteria were grown in brain heart infusion (BHI) medium broth at 37 °C. For the microdilution assay (MDA) and minimal inhibitory concentration (MIC) assay, bacteria in the mid-logarithmic phase were harvested and diluted to 4 × 10^5 CFU/mL with Dulbecco’s PBS. Bacteria were incubated with a series of 2-fold dilutions of indicated peptides or PBS for 2 h. The number of viable bacteria were enumerated by counting the colony-forming units (CFU). The MIC was defined as the lowest antimicrobial concentration which prevents the visible growth of bacteria.

B. subtilis ATCC 9372 = type: cell-based, Bacillus subtilis
Experimental: as §1

E. coli HB101 [2] = assay: microdilution assay (MDA), viable counts (CFU); type: cell-based, Escherichia coli; settings: peptide 100 μM, 2 h, 4 × 10^5 CFU/mL in Dulbecco's PBS, CFU counting, N = 3
Experimental: as §1

S. aureus 8325-4 = assay: microdilution assay (MDA), viable counts (CFU); type: cell-based, Staphylococcus aureus; settings: peptide 100 μM, 2 h, 4 × 10^5 CFU/mL in Dulbecco's PBS, CFU counting, N = 3
Experimental: as §1

With `CC[C@H](C)[C@H](NC(=O)[C@H](CC(C)C)NC(=O)[C@H](C)NC(=O)[C@H](CCCNC(=N)N)NC(=O)[C@H](Cc1ccccc1)NC(=O)[C@H](CC(C)C)NC(=O)[C@H](CCCCN)NC(=O)[C@@H](N)CCCNC(=N)N)C(=O)N[C@@H](CCC(N)=O)C(=O)N[C@@H](C)C(=O)N[C@@H](CS)C(=O)N[C@@H](CC(=O)O)C(=O)N[C@@H](CCCNC(=N)N)C(=O)N[C@@H](CCCCN)C(=O)O` [MFF-p1] (H-RKLFRALIQACDRK-OH) as the compound, how does the MIC (E. coli HB101 [1]) read?
The MIC was 6 to 12.5 µM.

And the percent of killing (B. subtilis ATCC 9372; ATCC 9372, 2 h, 100 μM)?
The percent of killing was “around 90%”.

For “LKDVFRDFIVVCQK [Z-p1, peptide that is a part of the Zizimin protein of Drosophila melanogaster]”, which “antimicrobial activity, inhibition of viable counts” value (“antimicrobial activity, inhibition” below) (E. coli HB101 [2]) is on record?
The value was “did not demonstrate antimicrobial activity”.

And the “antimicrobial activity, inhibition” value (B. subtilis ATCC 9372; peptide 100 μM, 2 h, 4 × 10^5 CFU/mL in Dulbecco's PBS, CFU counting, N = 3)?
Its value is “did not demonstrate antimicrobial activity”.

What about the “antimicrobial activity, inhibition” value (S. aureus 8325-4) of the same compound?
The value was “did not demonstrate antimicrobial activity”.
